The text below walks through data of patent US20250011299A1, “PYRIDAZINYL AMINO DERIVATIVES AS ALK5 INHIBITORS” (CHIESI FARMACEUTICI S.P.A., priority 2021, published 2025).

Values joined by “and” are separate entries in the source; they are usually repeats but may differ in a detail not shown here. Equal entries are not always repeated.

The target in this assay is T1, human ALK5 (Homo sapiens, UniProt P36897).
T1 construct: human ALK5 (recombinant TGF β1 N-term GST-tagged, 80-end); GST (N); purchased
T1 sequence (P36897 80-503 limits assumed): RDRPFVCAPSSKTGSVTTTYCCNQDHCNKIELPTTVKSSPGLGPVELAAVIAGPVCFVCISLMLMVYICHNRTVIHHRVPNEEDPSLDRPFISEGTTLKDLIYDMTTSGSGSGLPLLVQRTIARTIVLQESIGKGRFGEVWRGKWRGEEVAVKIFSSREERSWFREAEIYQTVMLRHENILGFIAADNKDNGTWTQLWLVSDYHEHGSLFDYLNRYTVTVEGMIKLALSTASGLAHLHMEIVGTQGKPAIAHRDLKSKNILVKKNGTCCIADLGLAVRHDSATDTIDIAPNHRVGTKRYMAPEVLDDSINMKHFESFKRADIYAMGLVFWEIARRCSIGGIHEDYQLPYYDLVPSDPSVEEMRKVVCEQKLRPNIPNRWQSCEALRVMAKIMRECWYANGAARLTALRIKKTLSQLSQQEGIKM
Briefly: ADP-GLO Kinases assay of ALK5 enzymatic activity. The assay is classed as biochemical. The conditions noted are these: purified recombinant human ALK5, TGFβ1 peptide substrate, pIC50 converted to pKi by Cheng-Prusoff, high ATP protocol (15 μM) for very potent compounds, 25° C. As for the experimental part: The enzymatic activity of compounds of the present invention was monitored measuring the formation of ADP using the ADP-GLO Kinases assay. Following the incubation of the purified enzyme, a substrate and ATP, the produced ADP was converted into ATP, which in turn was converted into light by Ultra-Glo Luciferase. The luminescent signal positively correlated with ADP amount and kinase activity. […] Compound and ALK5 kinase were mixed and incubated for 15 mins. […] After an incubation of 120 min, the reaction was stopped, and ADP production detected with ADP-Glo kit according to manufacturer's indications. […] After an incubation of 60 min, the kinase reaction was stopped, and ADP production detected with ADP-Glo kit according to manufacturer's indications. All reaction and incubation steps were performed at 25° C. and the assays were performed in 384-well format and validated using a selection of reference compounds tested in 11-point concentration-response curve. […] Results were expressed as pIC50 (negative logarithm of IC50) and subsequently converted to pKi (negative logarithm of […]) using the Cheng-Prusoff equation. The higher the value of pKi, the greater the inhibition of ALK5 activity.
For orientation: In ADP-Glo the light output rises with the ADP produced.
Broadly, the Ki is a measure of affinity in units of concentration, obtained from inhibition or displacement. In the case of `CN1CCN(CCC(=O)Nc2cc(Nc3cc(-c4cc(Cl)ccc4F)nnc3OCCN)ccn2)CC1` [Example 8, N-(4-{[3-(2-aminoethoxy)-6-(5-chloro-2-fluorophenyl)pyridazin-4-yl]amino}pyridin-2-yl)-3-(4-methylpiperazin-1-yl)propanamide], the Ki was 0.126 to 0.316 nM. For the molecule `CN1CCN([C@H]2C[C@H](C(=O)Nc3cc(Nc4cc(-c5cc(Cl)ccc5F)nnc4OC4CCOC4)ccn3)C2)CC1` (single isomer, unassigned) [Example 112, N-(4-{[6-(5-chloro-2-fluorophenyl)-3-(oxolan-3-yloxy)pyridazin-4-yl]amino}pyridin-2-yl)-3-(4-methylpiperazin-1-yl)cyclobutane-1-carboxamide], the Ki was at most 0.1 nM. The figure for `CN1CCN(CCC(=O)Nc2cc(Nc3cc(-c4cc(Cl)ccc4F)nnc3SC[C@H]3C[C@@H](O)C3)ccn2)CC1` [Example 154, N-(4-{[6-(5-chloro-2-fluorophenyl)-3-{[(3-hydroxycyclobutyl)methyl]sulfanyl}pyridazin-4-yl]amino}pyridin-2-yl)-3-(4-methylpiperazin-1-yl)propanamide] is at most 0.1 nM; for `CN1CCN(CCC(=O)Nc2cc(Nc3cc(-c4cc(Cl)ccc4F)nnc3N(C)CC3CCOC3=O)ccn2)CC1` (stereo not shown) [Example 108, N-(4-{[6-(5-chloro-2-fluorophenyl)-3-{methyl[(2-oxooxolan-3-yl)methyl]amino}pyridazin-4-yl]amino}pyridin-2-yl)-3-(4-methylpiperazin-1-yl)propanamide] it is at most 0.1 nM.

As for `CN(C)CCOc1nnc(-c2cc(Cl)ccc2F)cc1Nc1ccnc(NC(=O)CCN2CCOCC2)c1` [Example 40, N-(4-{[6-(5-chloro-2-fluorophenyl)-3-[2-(dimethylamino)ethoxy]pyridazin-4-yl]amino}pyridin-2-yl)-3-(morpholin-4-yl)propanamide], the Ki is 0.126 to 0.316 nM and 0.398 to 3.16 nM. `CN1CCCN(CC(=O)Nc2cc(Nc3cc(-c4cc(Cl)ccc4F)nnc3N(C)CC3(C)CCOC3=O)ncn2)CC1` (single isomer, unassigned) [Example 208, N-(6-{[6-(5-chloro-2-fluorophenyl)-3-{methyl[(3-methyl-2-oxooxolan-3-yl)methyl]amino}pyridazin-4-yl]amino}pyrimidin-4-yl)-2-(4-methyl-1,4-diazepan-1-yl)acetamide]: the Ki was at most 0.1 nM.

In the case of `CN1CCN([C@H]2C[C@@H](C(=O)Nc3cc(Nc4cc(-c5cc(Cl)ccc5F)nnc4N(C)CC4(C)CCOC4=O)ncn3)C2)CC1` (single isomer, unassigned; enantiomer 1) [Example 143, Cis Enantiomer 1 N-(6-{[6-(5-chloro-2-fluorophenyl)-3-{methyl[(3-methyl-2-oxooxolan-3-yl)methyl]amino}pyridazin-4-yl]amino}pyrimidin-4-yl)-3-(4-methylpiperazin-1-yl)cyclobutane-1-carboxamide], the inhibitory constant (Ki) was 0.126 to 0.316 nM.

With `O=C(Nc1cc(Nc2cc(-c3cc(Cl)ccc3F)nnc2SCCO)ccn1)[C@H]1C[C@@H](N2CCSCC2)C1` [Example 89, Cis N-(4-{[6-(5-chloro-2-fluorophenyl)-3-[(2-hydroxyethyl)sulfanyl]pyridazin-4-yl]amino}pyridin-2-yl)-3-(thiomorpholin-4-yl)cyclobutane-1-carboxamide], the Ki is at most 0.1 nM.

In the case of `CN1CCN(CCC(=O)Nc2cc(Nc3cc(-c4cc(Cl)ccc4F)nnc3OCC(F)(F)F)ccn2)CC1` [Example 50, N-(4-{[6-(5-chloro-2-fluorophenyl)-3-(2,2,2-trifluoroethoxy)pyridazin-4-yl]amino}pyridin-2-yl)-3-(4-methylpiperazin-1-yl)propanamide], the Ki is at most 0.1 nM. In the case of `COC(=O)C1CN(c2nnc(-c3cc(Cl)ccc3F)cc2Nc2ccnc(NC(=O)CCN3CCN(C)CC3)c2)C1` [Example 98, methyl 1-[6-(5-chloro-2-fluorophenyl)-4-({2-[3-(4-methylpiperazin-1-yl)propanamido]pyridin-4-yl}amino)pyridazin-3-yl]azetidine-3-carboxylate], the Ki was 0.126 to 0.316 nM. Consider `CN1CCN(CCC(=O)Nc2cc(Nc3cc(-c4cc(Cl)ccc4F)nnc3N(C)CCC(O)C(F)(F)F)ccn2)CC1` (stereo not shown) [Example 110, N-(4-{[6-(5-chloro-2-fluorophenyl)-3-[methyl(4,4,4-trifluoro-3-hydroxybutyl)amino]pyridazin-4-yl]amino}pyridin-2-yl)-3-(4-methylpiperazin-1-yl)propanamide], for which the Ki is at most 0.1 nM. The result for `COC(=O)C12CC(COc3nnc(-c4cc(Cl)ccc4F)cc3Nc3ccnc(NC(=O)[C@H]4C[C@@H](N5CCN(C)CC5)C4)c3)(C1)C2` [Example 126, Cis methyl 3-({[6-(5-chloro-2-fluorophenyl)-4-({2-[(1s,3s)-3-(4-methylpiperazin-1-yl)cyclobutaneamido]pyridin-4-yl}amino)pyridazin-3-yl]oxy}methyl)bicyclo[1.1.1]pentane-1-carboxylate] reads at most 0.1 nM; that for `CN1CCN([C@H]2C[C@@H](C(=O)Nc3cc(Nc4cc(-c5cc(Cl)ccc5F)nnc4N(C)C)ccn3)C2)CC1` [Example 97, cis N-(4-{[6-(5-chloro-2-fluorophenyl)-3-(dimethylamino)pyridazin-4-yl]amino}pyridin-2-yl)-3-(4-methylpiperazin-1-yl)cyclobutane-1-carboxamide], at most 0.1 nM; that for `CSc1nnc(-c2cc(Cl)ccc2F)cc1Nc1ccnc(NC(=O)CCN2CCN(C)CC2)c1` [Example 16, N-(4-{[6-(5-chloro-2-fluorophenyl)-3-(methylsulfanyl)pyridazin-4-yl]amino}pyridin-2-yl)-3-(4-methylpiperazin-1-yl)propanamide], at most 0.1 nM. The result for `CN1CCN(CCC(=O)Nc2cc(Nc3cc(-c4cc(Cl)ccc4F)nnc3N(C)Cc3cccc(O)c3)ccn2)CC1` [Example 102, N-(4-{[6-(5-chloro-2-fluorophenyl)-3-{[(3-hydroxyphenyl)methyl](methyl)amino}pyridazin-4-yl]amino}pyridin-2-yl)-3-(4-methylpiperazin-1-yl)propanamide] reads 0.126 to 0.316 nM; that for `CN1CCCN(CC(=O)Nc2cc(Nc3cc(-c4cc(Cl)ccc4F)nnc3SCCO)ccn2)CC1` [Example 27, N-(4-{[6-(5-chloro-2-fluorophenyl)-3-[(2-hydroxyethyl)sulfanyl]pyridazin-4-yl]amino}pyridin-2-yl)-2-(4-methyl-1,4-diazepan-1-yl)acetamide], at most 0.1 nM.

For the molecule `CN1CC(COc2nnc(-c3cc(Cl)ccc3F)cc2Nc2ccnc(NC(=O)C3CC3)c2)C1` [Example 44, N-(4-{[6-(5-chloro-2-fluorophenyl)-3-[(1-methylazetidin-3-yl)methoxy]pyridazin-4-yl]amino}pyridin-2-yl)cyclopropanecarboxamide], the Ki was 0.126 to 0.316 nM. The result for `COC(=O)C1CN(c2nnc(-c3cc(Cl)ccc3F)cc2Nc2ccnc(NC(=O)CN3C[C@@H]4C[C@H]3CN4C)c2)C1` [Example 109, methyl 1-[6-(5-chloro-2-fluorophenyl)-4-[(2-{2-[(1S,4S)-5-methyl-2,5-diazabicyclo[2.2.1]heptan-2-yl]acetamido}pyridin-4-yl)amino]pyridazin-3-yl]azetidine-3-carboxylate] reads at most 0.1 nM; that for `CN1CCN(CCC(=O)Nc2cc(Nc3cc(-c4cc(Cl)ccc4F)nnc3OCCO)ccn2)CC1` [Example 1, N-(4-{[6-(5-chloro-2-fluorophenyl)-3-(2-hydroxyethoxy)pyridazin-4-yl]amino}pyridin-2-yl)-3-(4-methylpiperazin-1-yl)propanamide], at most 0.1 nM; that for `CN1CCN([C@H]2C[C@@H](C(=O)Nc3cc(Nc4cc(-c5cc(Cl)ccc5F)nnc4OC4CCOC4)ccn3)C2)CC1` (single isomer, unassigned) [Example 113, N-(4-{[6-(5-chloro-2-fluorophenyl)-3-(oxolan-3-yloxy)pyridazin-4-yl]amino}pyridin-2-yl)-3-(4-methylpiperazin-1-yl)cyclobutane-1-carboxamide], 0.126 to 0.316 nM. The figure for `CN1C[C@@H]2C[C@H]1CN2[C@H]1C[C@@H](C(=O)Nc2cc(Nc3cc(-c4cc(Cl)ccc4F)nnc3SCCO)ccn2)C1` [Example 87, Cis N-(4-{[6-(5-chloro-2-fluorophenyl)-3-[(2-hydroxyethyl)sulfanyl]pyridazin-4-yl]amino}pyridin-2-yl)-3-[(1S,4S)-5-methyl-2,5-diazabicyclo[2.2.1]heptan-2-yl]cyclobutane-1-carboxamide] is at most 0.1 nM. The figure for `CN(CCC(O)C(F)(F)F)c1nnc(-c2cc(Cl)ccc2F)cc1Nc1ccnc(NC(=O)CN2C[C@@H]3C[C@H]2CN3C)c1` (single isomer, unassigned) [Example 131] is at most 0.1 nM.
